{"source": "patent US10907159B2", "about": "“Methods of treating cancer by inhibition of DNA repair proteins using antisense based therapies” (SARISSA INC., priority 2015, dated 2021)", "key": {"[1]": {"test_system": "DU145 human prostate cancer cells", "settings": "BR1 pretreatment; FIG. 37", "protocol": "Cells were treated for 4 hours with ASO, after which one volume of medium was added and cells were incubated for a further 20 hours. ASO-containing medium was removed and replaced with fresh medium. Cells were then incubated for 4 days and cell numbers assessed. Proliferation of BR1-treated cells was calculated as a percent of proliferation of non-targeting ASO-treated control cells. Initial cell density varied among cell lines."}, "[2]": {"test_system": "HN-5a and HN-5a/carbo-15a head and neck squamous carcinoma cells", "experiment": "Cisplatin sensitivity after ASO transfection (cell counting, colony forming)", "format": "cell-based, human", "settings": "FIG. 51", "experimental": "HN-5a cells are parental, cisplatin-sensitive human head and neck squamous carcinoma cells, and HN-5a/carbo-10a and HN-5a/carbo-15a cells are cisplatin-resistant lines derived from HN-5a cells (Ferguson et al., Drug Metab. Dispos. 27:1399-1405, 1999). Cells were exposed to cisplatin and effects on proliferation were assessed 72 h after drug treatment. HN-5a cells (b) and HN-5a/carbo-15a cells (c) were transfected with control (black circles) or BRCA2 (white circles) ASO, treated with varying concentrations of cisplatin and then counted 96 h post-transfection. HN-5a cells (d) and […] cells (e) were transfected with control or BRCA2 ASO, treated with different concentrations of cisplatin for 6 h, and then re-plated at a density of 500 cells per well to determine colony forming ability. *Different from cells treated with control ASO using a Student's t-test (p<0.05)."}, "BRCA2 mRNA": {"test_system": "BRCA2 mRNA", "experiment": "RT-qPCR of BRCA2 mRNA in A549 cells after OLIGO transfection", "format": "cell-based, human", "settings": "20 nM OLIGO, 24 hours post-transfection; FIG. 16", "experimental": "Briefly, A549 cells seeded at a density of 2.0×10^5 per flask were transfected with 20 nM of OLIGO specific for each target or control OLIGO using Lipofectamine 2000 as the transfection reagent. Twenty four hours post-transfection mRNA was extracted and reverse transcribed into cDNA. RT-qPCR was performed for target mRNA levels using TaqMan reagents according to established protocols."}, "MDA-MB-231 cells": {"test_system": "MDA-MB-231 cells", "experiment": "Cell proliferation assay, ASO transfection then drug (cell counting)", "format": "cell-based, human", "settings": "FIG. 49", "experimental": "Four hours post-transfection, cells were seeded into 6 well dishes in appropriate experimental groups. […] Ninety-six hours post transfection, cells were collected and counted (Coulter Particle Counter). Proliferation was determined based on initial cell density and calculated as a percentage of ASO+vehicle treated cells."}, "A549b cells": {"test_system": "A549b cells", "experiment": "cells", "format": "cell-based, human", "settings": "for enhancement of cisplatin (words): BR1 ASO pretreatment, FIGS. 38, 50", "experimental": "OLIGOs were introduced into cells with the use of Lipofectamine 2000 (LFA2K) (Invitrogen, Burlington, Ontario, Canada). OLIGOs were mixed with LFA2K at a ratio of 0.2 μg/ml per 10 nM OLIGO. The mixture was prepared at 11× the final concentration to which cells were exposed, so that 200 μL was added to 2 mL of medium in which cells were plated. After incubating at room temperature for 20 minutes, according to manufacturer's instructions, the OLIGOs were added to the cell medium. The OLIGO/LFA2K mix was then incubated (37° C.) on the cells for 4 hours, after which a second volume of medium was added. Cells were then incubated for 20 hours. Following this incubation, the OLIGO-containing medium was replaced with OLIGO-free medium.\nFor cells treated with the drug olaparib, for the purposes of determining whether inhibitory activity was enhanced by the OLIGO pretreatment, olaparib was added at this time, in concentrations of from 0.01 μM to 3 μM. At this point, replicate flasks from the OLIGO-treatment were used to enumerate cell content, as this varied among treatments over the initial 24-hour exposure. This was done so that the effect of treatment with olaparib could be ascertained based on the cell population that was present at the time of initiation of exposure to olaparib. Exposure to the olaparib was initiated by addition of 0.2-volume of a preparation of the drug, at 6× final concentration in growth medium, to the fresh drug-free medium on the cells (1 ml of drug into 5 ml of medium). Following a further 4-day incubation, the proliferation of the treated cells (fold-increase in cell number) was calculated as a percentage of that of control cells. Cell numbers were enumerated on an electronic particle counter (Beckman Coulter, Mississauga, ON). As indicated in Example 1, for the purpose of determining the anti-proliferative effect of antisense OLIGOs alone, the proliferation of cells treated with antisense OLIGOs was calculated as a percent of that of cells treated with an equivalent concentration of non-complementary control OLIGO (in this case OLIGO 32). However, for the purpose of determining the anti-proliferative effect of olaparib against antisense or non-complementary (control) OLIGO-treated cells, the proliferation was calculated as a percent of cells treated with the respective OLIGO.\nThese experiments were carried out essentially as described in Example 3, with the following changes. The drug tested was cisplatin instead of olaparib, and cisplatin was tested in concentrations ranging from 0.5 μM to 2 μM.\nThese experiments were carried out essentially as described in Example 3, with the following changes. The drug tested was melphalan in concentrations ranging from 2 μM to 10 μM.\nThese experiments were carried out essentially as described in Example 3, with the following changes. The drug tested was carboplatin at concentrations ranging from 5 μM to 40 μM.\nThese experiments were carried out essentially as described in Example 3, with the following changes. The drug tested was oxaliplatin was tested in concentrations ranging from 0.2 μM to 2.5 μM.\nCisplatin was added to the final concentration indicated, and as described in Example 3. Cells were incubated for 4 days, at which time cell number was counted. Proliferation was calculated as a percent of siRNA-treated, non-cisplatin-treated controls."}, "CAPAN-1 cells": {"test_system": "CAPAN-1 cells", "experiment": "Cell proliferation assay, ASO and/or drug (cell counting)", "format": "cell-based, human", "settings": "CAPAN-1 with mutated, non-functional BRCA2; FIG. 52", "experimental": "A: BRCA2-wild type SKOV-3 cells (black bars), […] MCF-7 cells (white bars), and BRCA2-mutated CAPAN-1 cells (grey bars) were treated simultaneously but separately with BRCA2 ASO (20 nM). Due to differing growth medium requirements and to avoid fluorescent label-induced changes in drug sensitivity, cells were not co-cultured. They were treated independently, at the same time with the same materials. Ninety-six hours post-transfection, cells were counted and proliferation determined (% of proliferation after control ASO treatment).\nC: SKOV-3, MCF-7 and CAPAN-1 cells were treated with two different concentrations of olaparib for 96 hours. After drug treatment they were counted and proliferation was determined as a percent of that of vehicle-treated cells.\nFour hours post-transfection, cells were seeded into 6 well dishes in appropriate experimental groups. Twenty-four hours post transfection, cells were treated with olaparib (Selleckchem) at three concentrations. Ninety-six hours post transfection, cells were collected and counted (Coulter Particle Counter). Proliferation was determined based on initial cell density and calculated as a percentage of ASO+vehicle treated cells."}}, "data": [{"substance": "5′-guaucuCTTGACGTuccuua-3′ (GUAUCUCTTGACGTUCCUUA; gapmer, lower-case wings modified, type not given here) [BR1]", "values": [{"measurement": "enhancement of veliparib", "setting": "[1]", "value": "enhances veliparib"}, {"measurement": "effect on acquired cisplatin resistance", "setting": "[2]", "value": "reverses acquired cisplatin resistance"}, {"measurement": "effect on BRCA2 mRNA level", "setting": "BRCA2 mRNA", "value": "reduction in BRCA2 mRNA"}, {"measurement": "effect on antiproliferative activity of cisplatin", "setting": "MDA-MB-231 cells", "value": "enhances the antiproliferative activity of cisplatin"}, {"measurement": "enhanced inhibition of proliferation by olaparib (% decrease in the IC50 value)", "setting": "A549b cells; A549 cells, ASO pre-incubation, FIGS. 34, 35", "value": "up to 95%"}, {"measurement": "enhancement of cisplatin (words)", "setting": "A549b cells; A549 cells", "value": "enhances cisplatin"}, {"measurement": "enhancement of cisplatin (words)", "setting": "A549b cells; A549 cells, listed as BR-1", "value": "enhances the antiproliferative activity of cisplatin or melphalan"}, {"measurement": "enhanced the anti-proliferative effect of olaparib", "setting": "A549b cells; BR1 pretreatment, at a given concentration of olaparib, FIG. 2", "value": "over 40%"}, {"measurement": "enhancement of veliparib", "setting": "A549b cells; BR1 vs ODN 32, A549 cells, FIGS. 36, 37", "value": "enhances veliparib"}, {"measurement": "effect on antiproliferative activity of cisplatin", "setting": "CAPAN-1 cells", "value": "no effect on the antiproliferative activity of cisplatin"}]}]}
